The values that follow come from article PMC11345828 (Journal of Medicinal Chemistry, 2024).

SMILES strings stand for the structures. Values joined by “and” are separate entries in the source; they are usually repeats but may differ in a detail not shown here. Equal entries are not always repeated. Where two headings read alike, the source gives them in different places. Marks after values point to notes of the source that are not given here.

One data set deals with K562 cell line. Briefly: cells. To be noted: Homo sapiens, K562, read-out: K562 GI50. Here is the method:
(§1) NCI-H1048 were cultured in custom medium prepared by PanBioTech containing DMEM/F12 + 5% fetal calf serum, 0.005 mg/mL insulin, 0.01 mg/mL transferrin, 30 nM sodium selenite, 10 nM hydrocortisone, 10 nM β-estradiol and […] 2 mM L-glutamine.
(§2) Suspension cells were plated immediately before compound addition. Adherent cell lines were incubated overnight at 37 °C in a tissue culture incubator prior to compound addition. Compounds were added in triplicates using an HP D300e Digital Dispenser (Hewlett-Packard) or manually at the concentrations indicated and total volumes were normalized using dimethyl sulfoxide (DMSO) backfill, with final DMSO concentration of 0.5%. Control wells were treated with DMSO only.

The next data set deals with NCI-H929 cell line. As to the kind of experiment: cells. As to conditions: Homo sapiens. Here is the method: as §1, §2
The next data set is described as follows: Dog IV PK. To be noted: dosed at 0.25 mg/kg.
The nature of another data set: Mouse IV PK. To be noted: for CL / AUC/Dose / improvement in the mouse IV clearance from (M)-18: mouse IV; for CL / AUC/Dose: dosed at 25 mg/kg; for AUC/Dose: dose normalized; for clearance: mouse, plasma, iv; for improvement in the mouse IV clearance from (M)-18: relative to (M)-18.
On the set-up of data set [1]: method as in PMID 37880389. As to conditions: including increases in patient troponin I levels; cited from earlier work.
The target of the next data set is Mcl-1 (Homo sapiens, UniProt Q07820). In kind it is binding. To be noted: read-out: TR-FRET Ki. An excerpt:
Mixtures containing vehicle without compound served as a negative control, while mixtures containing no protein served as a positive control.

On the set-up of data set [2]: method as in PMID 30254093. As to conditions: species not given; cited from earlier work.
Setting [3] is: NCI-H929, read-out: NCI-H929 GI50.

Mcl-1, sequence (Q07820 whole entry): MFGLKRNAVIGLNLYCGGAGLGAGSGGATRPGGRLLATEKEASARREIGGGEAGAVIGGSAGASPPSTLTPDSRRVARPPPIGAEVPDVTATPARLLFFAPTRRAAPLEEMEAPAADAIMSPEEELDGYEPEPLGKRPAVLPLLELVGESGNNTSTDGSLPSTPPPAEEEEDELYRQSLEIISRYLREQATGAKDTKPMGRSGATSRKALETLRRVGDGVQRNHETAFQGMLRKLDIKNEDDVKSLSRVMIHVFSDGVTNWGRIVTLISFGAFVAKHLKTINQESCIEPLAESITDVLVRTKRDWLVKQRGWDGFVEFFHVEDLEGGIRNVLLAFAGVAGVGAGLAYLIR
Procedure for Dog IV PK: (§3) For PK analysis, mice and dogs were administered intravenously with compound formulated either in 10% ethanol and 10% Cremophor EL for mice or in 50% ethanol and 50% PEG500 for dogs. Plasma samples were obtained at predefined time points and compound concentrations in plasma were measured by quantitative HPLC-MS/MS using an internal standard. Calibration and quality control samples were prepared using blank plasma from untreated animals. Samples were precipitated with acetonitrile and injected into a HPLC system (Agilent 1200). […] The HPLC was interfaced by ESI operated in positive ionization mode to a triple quadrupole mass spectrometer (6500+ Triple Quad System, SCIEX) operated in multiple reaction monitoring mode. Chromatograms were analyzed with Analyst (SCIEX) and pharmacokinetic parameters were calculated by noncompartmental analysis using proprietary software.
Procedure for Mouse IV PK: as §3

In the case of `COCCOc1cc(N2C[C@@H](C)n3c(c(CCCOc4cc(C)c(Cl)c(C)c4)c4ccc(Cl)c(-c5c(C)nc(C)nc5C)c43)C2=O)c2c(cc(C(=O)O)n2C)c1OC` [Compound 25, (R)-7-(7-Chloro-10-(3-(4-chloro-3,5-dimethylphenoxy)propyl)-4-methyl-1-oxo-6-(2,4,6-trimethylpyrimidin-5-yl)-3,4-dihydropyrazino[1,2-a]indol-2(1H)-yl)-4-methoxy-5-(2-methoxyethoxy)-1-methyl-1H-indole-2-carboxylic Acid], the GI50 (as a rule, the concentration that inhibits growth by half) in the data set on K562 cell line was greater than 12000 nM. Besides, the concentration for 50% growth inhibition (GI50) in the data set on NCI-H929 cell line (setting [3]) was found to be 22 ± 10 nM. In addition, in the data set “Dog IV PK”, the AUC/Dose is recorded as 1324 nM*h/mpk, the CL came to 16 mL/min/kg and the “CL (% hep blood flow)” value is listed as 50 % hep blood flow. Further, in the data set “Mouse IV PK”, the CL was determined as 51 mL/min/kg and the AUC/Dose was 334^c nM*h/mpk. Also, the clearance (as a rule, a measure of how efficiently the substance is removed, as volume per time) in the data set “Mouse IV PK” (25 mg/kg) was found to be 51 mL/min/kg.
For the compound `Cc1c(Cl)c2c(Cl)c(C)c1-c1c(-c3ccc(F)cc3)sc3ncnc(c13)O[C@@H](C(=O)O)Cc1cc(ccc1OCc1ccnc(-c3ccc(OC[C@H]4COCCO4)cc3)n1)OC[C@@H](CN1CCN(C)CC1)O2` [Compound 5], the “toxicity reported in the clinic” value in data set [1] was “dose limiting toxicities”.
`COc1cc(N2C[C@@H](C)n3c(c(CCCOc4cc(C)c(Cl)c(C)c4)c4ccc(Cl)c(-c5c(C)nn(C)c5C)c43)C2=O)c2c(c1)cc(C(=O)O)n2C` [Compound 12, (R)-7-(7-Chloro-10-(3-(4-chloro-3,5-dimethylphenoxy)propyl)-4-methyl-1-oxo-6-(1,3,5-trimethyl-1H-pyrazol-4-yl)-3,4-dihydropyrazino[1,2-a]indol-2(1H)-yl)-5-methoxy-1-methyl-1H-indole-2-carboxylic Acid]: the Ki (usually the dissociation constant of the complex between target and ligand, obtained from inhibition or displacement) at Mcl-1 was found to be 0.185 ± 0.027 nM. In addition, the figures for the GI50 in the data set with K562 cell line and in the data set with NCI-H929 cell line (setting [3]) were greater than 12500 nM and 211 ± 22 nM, respectively.
As to `COCCOc1cc(N2C[C@@H](C)n3c(c(CCCOc4cc(C)c(Cl)c(C)c4)c4ccc(Cl)c(-c5c(C)ncnc5C)c43)C2=O)c2c(cc(C(=O)O)n2C)c1OC` [Compound 21, (R)-7-(7-Chloro-10-(3-(4-chloro-3,5-dimethylphenoxy)propyl)-6-(4,6-dimethylpyrimidin-5-yl)-4-methyl-1-oxo-3,4-dihydropyrazino[1,2-a]indol-2(1H)-yl)-4-methoxy-5-(2-methoxyethoxy)-1-methyl-1H-indole-2-carboxylic Acid], the results for the GI50 in the data set on K562 cell line and with NCI-H929 cell line (setting [3]) were greater than 12000 nM and 30 ± 13 nM, respectively. Also, the CL in “Mouse IV PK” stood at 58 mL/min/kg. In “Mouse IV PK”, the AUC/Dose was 290^c nM*h/mpk. The compound further displayed a clearance in “Mouse IV PK” (25 mg/kg) of 58 mL/min/kg.
On to `COc1cc(N2C[C@@H](C)n3c(c(CCCOc4cc(C)c(Cl)c(C)c4)c4ccc(Cl)c(-c5c(C)ncnc5C)c43)C2=O)c2c(cc(C(=O)O)n2C)c1OC` [Compound 19, (R)-7-(7-Chloro-10-(3-(4-chloro-3,5-dimethylphenoxy)propyl)-6-(4,6-dimethylpyrimidin-5-yl)-4-methyl-1-oxo-3,4-dihydropyrazino[1,2-a]indol-2(1H)-yl)-4,5-dimethoxy-1-methyl-1H-indole-2-carboxylic Acid], for which the GI50 with K562 cell line is 7000 nM. For the same compound, the GI50 in the data set on NCI-H929 cell line (setting [3]) came out at 32 ± 14 nM. In the data set “Mouse IV PK”, the CL is given as 43 mL/min/kg and the “improvement in the mouse IV clearance from (M)-18” value is 2 fold. Moreover, in “Mouse IV PK” (25 mg/kg), the AUC/Dose is 499 nM*h/mpk and 499^c nM*h/mpk; the clearance was 43 mL/min/kg.
Turning to `Cc1cc(OCCCc2c3n(c4c(-c5c(C)nn(C)c5C)c(Cl)ccc24)[C@H](C)CN(c2cccc4cc(C(=O)O)n(C)c24)C3=O)cc(C)c1Cl` [Compound 10, (R)-7-(7-Chloro-10-(3-(4-chloro-3,5-dimethylphenoxy)propyl)-4-methyl-1-oxo-6-(1,3,5-trimethyl-1H-pyrazol-4-yl)-3,4-dihydropyrazino[1,2-a]indol-2(1H)-yl)-1-methyl-1H-indole-2-carboxylic Acid], the values for the GI50 with K562 cell line and with NCI-H929 cell line (setting [3]) were greater than 12500 nM and 187 ± 78 nM, respectively.
Consider `CO[C@H]1/C=C/C[C@H](C)[C@@H](C)S(=O)(=O)NC(=O)c2ccc3c(c2)N(C[C@@H]2CC[C@H]21)C[C@@]1(CCCc2cc(Cl)ccc21)CO3` [Compound 3], for which, in data set [2], the T is 14 h and the Vss (as a rule, the apparent volume that relates the amount in the body to the concentration in plasma or blood) is recorded as 0.6 L/kg.
For the compound `COc1cc(N2C[C@@H](C)n3c(c(CCCOc4cc(C)c(Cl)c(C)c4)c4ccc(Cl)c(-c5c(C)nc(C)nc5C)c43)C2=O)c2c(cc(C(=O)O)n2C)c1OC` [Compound 20, (R)-7-(7-Chloro-10-(3-(4-chloro-3,5-dimethylphenoxy)propyl)-4-methyl-1-oxo-6-(2,4,6-trimethylpyrimidin-5-yl)-3,4-dihydropyrazino[1,2-a]indol-2(1H)-yl)-4,5-dimethoxy-1-methyl-1H-indole-2-carboxylic Acid], the GI50 with K562 cell line was 6800 ± 3300 nM. Besides, the GI50 with NCI-H929 cell line (setting [3]) was determined as 33 ± 14 nM. For the same compound, in the data set “Mouse IV PK”, the CL is recorded as 45 mL/min/kg and the “improvement in the mouse IV clearance from (M)-18” value amounted to 2 fold. In “Mouse IV PK” (25 mg/kg), the AUC/Dose is 385 nM*h/mpk and 385^c nM*h/mpk; the clearance is 45 mL/min/kg.
Turning to `COc1ccc(N2C[C@@H](C)n3c(c(CCCOc4cc(C)c(Cl)c(C)c4)c4ccc(Cl)c(-c5c(C)nn(C)c5C)c43)C2=O)c2c1cc(C(=O)O)n2C` [Compound 13, (R)-7-(7-Chloro-10-(3-(4-chloro-3,5-dimethylphenoxy)propyl)-4-methyl-1-oxo-6-(1,3,5-trimethyl-1H-pyrazol-4-yl)-3,4-dihydropyrazino[1,2-a]indol-2(1H)-yl)-4-methoxy-1-methyl-1H-indole-2-carboxylic Acid], the Ki at Mcl-1 was determined as 0.091 ± 0.003 nM. For the same compound, the GI50 in the data set with K562 cell line is greater than 7100 nM; in the data set with NCI-H929 cell line (setting [3]) it was 110 ± 38 nM.
As to `CO[C@]1(CN2CCN3CCCC[C@@H]3C2)/C=C/C[C@H](C)[C@@H](C)S(=O)(=O)NC(=O)c2ccc3c(c2)N(C[C@@H]2CC[C@H]21)C[C@@]1(CCCc2cc(Cl)ccc21)CO3` [Compound 4], the “toxicity reported in the clinic” value in data set [1] is reported as “dose limiting toxicities”.
`Cc1cc(N2C[C@@H](C)n3c(c(CCCOc4cc(C)c(Cl)c(C)c4)c4ccc(Cl)c(-c5c(C)nn(C)c5C)c43)C2=O)c2c(c1)cc(C(=O)O)n2C` [Compound 11, (R)-7-(7-Chloro-10-(3-(4-chloro-3,5-dimethylphenoxy)propyl)-4-methyl-1-oxo-6-(1,3,5-trimethyl-1H-pyrazol-4-yl)-3,4-dihydropyrazino[1,2-a]indol-2(1H)-yl)-1,5-dimethyl-1H-indole-2-carboxylic Acid]: the Ki at Mcl-1 was 0.205 ± 0.018 nM. Further, the figures for the GI50 in the data set with K562 cell line and with NCI-H929 cell line (setting [3]) were greater than 12500 nM and 140 ± 110 nM, respectively.
Consider `COc1ccccc1-c1nccc(COc2ccccc2C[C@@H](Oc2ncnc3sc(-c4ccc(F)cc4)c(-c4ccc(OCCN5CCN(C)CC5)c(Cl)c4C)c23)C(=O)O)n1` [Compound 1], for which the “toxicity reported in the clinic” value in data set [1] is “dose limiting toxicities”.
On to `COCc1cc(N2C[C@@H](C)n3c(c(CCCOc4cc(C)c(Cl)c(C)c4)c4ccc(Cl)c(-c5c(C)nn(C)c5C)c43)C2=O)c2c(c1)cc(C(=O)O)n2C` [Compound 14, (R)-7-(7-Chloro-10-(3-(4-chloro-3,5-dimethylphenoxy)propyl)-4-methyl-1-oxo-6-(1,3,5-trimethyl-1H-pyrazol-4-yl)-3,4-dihydropyrazino[1,2-a]indol-2(1H)-yl)-5-(methoxymethyl)-1-methyl-1H-indole-2-carboxylic Acid], for which the Ki at Mcl-1 was 0.2 ± 0.065 nM. Moreover, the GI50 in the data set on K562 cell line is greater than 12500 nM; in the data set with NCI-H929 cell line (NCI-H929, read-out: H929 GI50) it was 112 nM; in the data set with NCI-H929 cell line (setting [3]), 122 ± 16 nM.
